This note sets out measurements from ChEMBL document CHEMBL1201862, “PubChem BioAssay data set” (2004).

Molecules are shown by their SMILES.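 A five-concentration, 48-hour dose response in 96-well plates underlies each endpoint, interpolated linearly between surrounding concentrations. GI50 marks 50% less growth.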 Calls of active or inactive are those of the source. Cut-off read from the data, not from the text of the source: active = GI50 up to about 1.1 µM and inactive = higher. Peptide text beside a SMILES is read from it. * marks the point of attachment. Boc = CC(C)(C)OC(=O)*; OBn = c1ccc(CO*)cc1

Test systems include ACHN; DU-145; Hs-578T; K562; KM12; LOX IMVI; MCF7; MDA-MB-231; MDA-MB-435; NCI-H226; OVCAR-5; OVCAR-8; RXF 393; SK-MEL-28; SK-MEL-2; SK-MEL-5; SNB-19; SW-620; TK-10; UACC-257.
Holding throughout (assay): NCI-60 cell line screen, 48 h

As to `CCOC(=O)C1=CC(C)(C(=O)OCC)Nc2c(nc(N)[nH]c2=O)N1` (stereo not given), the GI50 in the experiment with ACHN, in the experiment with DU-145, in the experiment with Hs-578T, in the experiment on K562, with KM12 and in the experiment on LOX IMVI was > 10 µM (inactive) throughout. For the same compound, the GI50 in the experiment on MCF7, in the experiment on MDA-MB-231, in the experiment with MDA-MB-435, with NCI-H226, with OVCAR-5 and with OVCAR-8 was > 10 µM (inactive) throughout. For the same compound, the GI50 with RXF 393, in the experiment on SK-MEL-28, with SK-MEL-2, in the experiment on SK-MEL-5, with SNB-19 and in the experiment with SW-620 was > 10 µM (inactive) throughout. Besides, the GI50 in the experiment on TK-10 and in the experiment on UACC-257 was > 10 µM (inactive) throughout.

With `CC(C)CC(NC(=O)OC(C)(C)C)C(=O)NC(CC(=O)OCc1ccccc1)C(N)=O` (stereo not drawn) (Boc-Leu-Asp(OBn)-NH2; configuration not given here), the GI50 in the experiment with ACHN is > 100 µM (inactive); in the experiment on DU-145, > 100 µM (inactive); in the experiment with Hs-578T, 58.9 µM (inactive); with K562 it was > 100 µM (inactive); with KM12, > 100 µM (inactive); with LOX IMVI it was > 100 µM (inactive). The GI50 in the experiment on MCF7, in the experiment on MDA-MB-231, in the experiment on MDA-MB-435, with NCI-H226, in the experiment with OVCAR-5 and with OVCAR-8 was > 100 µM (inactive) in each case. The GI50 in the experiment on RXF 393, in the experiment on SK-MEL-28, in the experiment on SK-MEL-2, in the experiment on SK-MEL-5, in the experiment with SNB-19 and with SW-620 was > 100 µM (inactive) each time. Also, the GI50 in the experiment on TK-10 and with UACC-257 was > 100 µM (inactive) each time.

As for `O=C1c2c(nc3ccccc3c2-c2ccccc2)CN1Nc1ccccn1`, the GI50 is 43.7 µM (inactive) with ACHN; 67.9 µM (inactive) with DU-145; 21.2 µM (inactive) with Hs-578T; 83.4 µM (inactive) in the experiment on K562; 76 µM (inactive) with KM12; > 76.9 µM (inactive) in the experiment with LOX IMVI. Besides, the GI50 with MCF7 is > 70 µM (inactive); in the experiment on MDA-MB-231 it was > 100 µM (inactive); in the experiment on MDA-MB-435 it was > 100 µM (inactive); in the experiment with NCI-H226, 61.1 µM (inactive); with OVCAR-5, > 100 µM (inactive); in the experiment on OVCAR-8, 43.5 µM (inactive). Also, the GI50 in the experiment with RXF 393 was 53 µM (inactive); in the experiment on SK-MEL-28 it was > 100 µM (inactive); in the experiment on SK-MEL-2, > 100 µM (inactive); in the experiment with SK-MEL-5, 74.5 µM (inactive); with SNB-19, > 86.5 µM (inactive); with SW-620, > 100 µM (inactive). The GI50 in the experiment with TK-10 was > 83 µM (inactive); in the experiment with UACC-257, > 92 µM (inactive).

For the compound `O=C1c2cc([N+](=O)[O-])ccc2-c2cccc(F)c21`, the GI50 in the experiment with ACHN is > 100 µM (inactive); in the experiment on DU-145, > 100 µM (inactive); in the experiment with Hs-578T, 52.1 µM (inactive); with K562, 43 µM (inactive); in the experiment on KM12, 79.4 µM (inactive); in the experiment with LOX IMVI, 60 µM (inactive). The GI50 with MCF7 is 31.3 µM (inactive); with MDA-MB-231, > 100 µM (inactive); in the experiment on MDA-MB-435, 76.7 µM (inactive); in the experiment with NCI-H226, 96.4 µM (inactive); with OVCAR-5, > 100 µM (inactive); in the experiment with OVCAR-8, 43.1 µM (inactive). The GI50 with RXF 393 is 42.9 µM (inactive); with SK-MEL-28 it was > 100 µM (inactive); in the experiment with SK-MEL-2 it was 21.2 µM (inactive); in the experiment on SK-MEL-5, 70.6 µM (inactive); with SNB-19, > 100 µM (inactive); in the experiment on SW-620 it was 48.3 µM (inactive). Besides, the GI50 in the experiment on TK-10 is > 100 µM (inactive); in the experiment on UACC-257, 65.3 µM (inactive).

Turning to `CC(=O)O[C@H]1C(=O)[C@@]2(C)[C@H]([C@H](OC(=O)c3cccc([N+](=O)[O-])c3)[C@]3(O)C[C@H](OC(=O)[C@H](O)[C@@H](NC(=O)c4ccccc4)c4ccccc4)C(C)=C1C3(C)C)[C@]1(OC(C)=O)CO[C@@H]1C[C@@H]2O`, the GI50 in the experiment with ACHN is 0.151 µM (active); with DU-145 it was 0.0177 µM (active); with Hs-578T, 0.00322 µM (active); in the experiment with K562, 0.00482 µM (active); with KM12, 0.0047 µM (active); in the experiment with LOX IMVI, 0.00558 µM (active). The GI50 is 0.00423 µM (active) with MCF7; 0.0122 µM (active) in the experiment with MDA-MB-231; 0.00336 µM (active) in the experiment on MDA-MB-435; 0.00257 µM (active) in the experiment with NCI-H226; 0.0105 µM (active) with OVCAR-5; 0.00785 µM (active) in the experiment on OVCAR-8. Besides, the GI50 with RXF 393 is 0.0133 µM (active); in the experiment with SK-MEL-28 it was 0.0157 µM (active); in the experiment with SK-MEL-2, 0.0126 µM (active); in the experiment with SK-MEL-5 it was 0.00582 µM (active); in the experiment on SNB-19, 0.00652 µM (active); in the experiment on SW-620 it was 0.00706 µM (active). In addition, the GI50 in the experiment with TK-10 is 0.0495 µM (active); in the experiment on UACC-257 it was < 0.0025 µM (active).
